Common to all, as to assay type: in vivo, human
Series [1] deals with patients with downbeat nystagmus. Briefly: Case studies, clinical examination (visual acuity, posturography). The source says: The patient was diagnosed with downbeat nystagmus: the patient was severely impaired by blurred vision (oscillopsia) due to the nystagmus, and experienced difficulties while reading and writing. The patient's visual acuity was: right 0.75, left 0.67, binocular 0.83, and the downbeat nystagmus was documented by video-oculography. […] […] […] The patient was able to suppress the nystagmus by visual fixation. In addition, the patient's spatial orientation was improved.

In series [2] the test system is patient with frontotemporal dementia with parkinsonism. Kind of series: Case study, clinical examination. The following applies: Ex. 9, frontotemporal dementia with parkinsonism; L-Dopa and Ropinirol together. The text has this:
After approximately one month of acetyl-leucine treatment, medication was stopped and the patient was re-examined 13 days later.

The test system of series [3] is patient with corticobasal syndrome. Briefly: Case study, clinical examination. Particulars: Ex. 10, corticobasal syndrome. How it is done: Gait analysis was performed before treatment commenced. After 20 days of acetyl-leucine treatment, the patient was re-examined. […] After 8 weeks of acetyl-leucine treatment, medication was stopped and the patient was re-examined 6 days later.

Series [4] relates to patients with progressive supranuclear palsy. Kind of series: Case studies, clinical examination. How it is done:
After 27 days of acetyl-leucine treatment, medication was stopped and the patient was re-examined 60 days later. […] Gait analysis was performed before treatment commenced. After 17 days of treatment, medication was stopped and the patient was re-examined 4 days later. […] Gait analysis was performed before treatment commenced. After three weeks of treatment, medication was stopped and the patient was re-examined.

Series [5] deals with patients with multiple system atrophy Parkinson type (MSA-P). Briefly: Case studies, clinical examination. The text has this:
Medication was stopped. […] The patient evaluated after one month on acetyl-DL-leucine. […] Episodes of mental confusion completely disappeared. The patient's cognitive structure seemed much clearer and straighter. […] The patient's spouse supported continuing the medication.

The test system of series [6] is patient with Lewy Body dementia. Briefly: Case study, clinical evaluation. The following applies: Ex. 17, Lewy Body dementia; Levodopa 100 mg 4× daily and Quetiapin 25 mg at night together. How it is done: The patient started taking acetyl-leucine (3 g/day for one week; 5 g/day thereafter) and was evaluated after four weeks. […] Medication was reduced to 3 g/day, and the patient was instructed to stop medication about two weeks later.

Series [7] deals with patients with amyotrophic lateral sclerosis (ALS). Briefly: Case studies, medical examination. The following applies: Ex. 7 Patient 1, ALS; before acetyl-DL-leucine. The text has this:
The results were documented by video.

Consider `Nc1ccncc1` [4-aminopyridine], for which the response to treatment entry in series [1] (Ex. 12 Patient 1, downbeat nystagmus, 10 mg twice daily for four weeks) is recorded as “did not give rise to any benefit”; in series [1] (Ex. 12 Patient 2, downbeat nystagmus), “did not benefit”.
Take `N[C@@H](Cc1ccc(O)c(O)c1)C(=O)O` [L-Dopa]: the response to treatment entry in series [2] was “little improvement”; in series [3], “no improvement”; in series [4] (Ex. 11 Patient 1, progressive supranuclear palsy) it was “little improvement”; in series [4] (Ex. 11 Patient 2, PSP) it was “no levodopa response”; in series [4] (Ex. 11 Patient 3, PSP), “no levodopa response”; in series [4] (Ex. 11 Patient 4, PSP), “slight levodopa response”. Also, the response to treatment entry in series [5] (Ex. 13 Patient 1, MSA-P, 100/25 mg 3× daily) is “discreet Levodopa response”; in series [6], “improved the symptomatology”. In series [5] (Ex. 13 Patient 3, MSA-P), the tolerability result is recorded as “suspended due to side effects”.
As to `OCCOCCN1CCN(C2=Nc3ccccc3Sc3ccccc32)CC1` [Quetiapin], the response to treatment result in series [6] is “improved the symptomatology”.
On to `Nc1nc2ccc(OC(F)(F)F)cc2s1` [Riluzol], for which the clinical symptomatology result in series [7] was “clinical symptomatology remained unchanged”.
In the case of `CCCN(CCC)CCc1cccc2c1CC(=O)N2` [Ropinirol], the response to treatment result in series [2] is “little improvement”.
